In US20250221988A1 (Cullgen (Shanghai), Inc., priority 2022, published 2025):
pIC50: −log10 of the molar value. Read-outs that look alike come from different tables or passages of the source.

How the values were obtained:
MV4;11 cells = experiment: Cell viability assay (CellTiter-Glo) in MV4;11 cells; format: cell-based; settings: read-out: MV4; for pIC50: compound alone, 11 IC50
Method in brief: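 5000 cells/well in RPMI 1640 or DMEM with 10% FBS, treated with 8- or 12-point 3-fold compound dilutions, with or without gilteritinib (10 nM for MV4;11, 20 nM for MOLM-13). Viability by CellTiter-Glo after three days; IC50 by nonlinear least-squares regression.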

MOLM-13 cells = experiment: Cell viability assay (CellTiter-Glo) in MOLM-13 cells; format: cell-based; settings: for pIC50: 72 h, compound alone, read-out: MOLM-13 IC50; for sensitization of AML cells to GSPT1 degraders by FLT3 inhibition: with or without 20 nM gilteritinib, 3 days
[1] = Homo sapiens, MV4-11, 72 h, 11 IC50 (nM)
[2] = 11 IC50 (nM) + 10 nM Gil, MV4;11 cells, with 10 nM gilteritinib, three days
[3] = Homo sapiens, MOLM-13, 72 h, read-out: MOLM-13 IC50 (nM)
[4] = read-out: MOLM-13 IC50 (nM) + 10 nM Gil, MOLM-13 cells, with gilteritinib, three days
[5] = Homo sapiens, MV4-11, 72 h, MV4;11 cells, three days
[6] = Homo sapiens, MOLM-13 cells, three days
[7] = MOLM-13 cells, with gilteritinib, three days, read-out: MOLM-13 IC50 (nM) + 10 nM Gil
[8] = MV4;11 cells, with 10 nM gilteritinib, three days, 11 IC50 (nM) + 10 nM Gil

Row | pIC50 (MV4;11 cells; [5]) | pIC50 (MOLM-13 cells; [6]) | IC50 (MOLM-13 cells; [7]) | IC50 (MV4;11 cells; [8]) | Structure (SMILES) | IC50 (MV4;11 cells; [1]) | IC50 (MV4;11 cells; [2]) | IC50 (MOLM-13 cells; [3]) | IC50 (MOLM-13 cells; [4]) | sensitization of AML cells to GSPT1 degraders by FLT3 inhibition (MOLM-13 cells; MOLM-13 cells)
1 |  |  |  |  | O=C1CCC(N2C(=O)c3ccc(NC[C@H]4C[C@H](n5cc(Cc6ccccc6)c(C6CC6)n5)C4)cc3C2=O)C(=O)N1 (stereo partly drawn) [GS-735, 5-(((Trans-3-(4-benzyl-3-cyclopropyl-1H-pyrazol-1-yl)cyclobutyl)methyl)amino)-2-(2,6-dioxopiperidin-3-yl)isoindoline-1,3-dione] | 10 to 100 nM | < 10 nM | 10 to 100 nM | < 10 nM | 
2 |  |  |  |  | O=C1CCC(N2C(=O)c3ccc(NC[C@H]4C[C@H](n5cc(-n6ncc7ccccc76)c(C6CC6)n5)C4)cc3C2=O)C(=O)N1 (stereo partly drawn) [GS-736, 5-(((Trans-3-(3-cyclopropyl-4-(1H-indazol-1-yl)-1H-pyrazol-1-yl)cyclobutyl)methyl)amino)-2-(2,6-dioxopiperidin-3-yl)isoindoline-1,3-dione] | < 10 nM | < 10 nM | 10 to 100 nM | < 10 nM | 
3 |  |  |  |  | CC(C)n1ccc2ccc(-c3cn([C@H]4C[C@H](CNc5ccc6c(c5)C(=O)N(C5CCC(=O)NC5=O)C6=O)C4)nc3C3CC3)nc21 (stereo partly drawn) [GS-737, 5-(((Trans-3-(3-cyclopropyl-4-(1-isopropyl-1H-pyrrolo[2,3-b]pyridin-6-yl)-1H-pyrazol-1-yl)cyclobutyl)methyl)amino)-2-(2,6-dioxopiperidin-3-yl)isoindoline-1,3-dione] | 10 to 100 nM | 10 to 100 nM | 100 to 1000 nM | 10 to 100 nM | 
4 |  |  |  |  | O=C1CCC(N2C(=O)c3ccc(NC[C@H]4C[C@H](n5cc(-n6ccc7ccccc76)c(C6CC6)n5)C4)cc3C2=O)C(=O)N1 (stereo partly drawn) [GS-738, 5-(((Trans-3-(3-cyclopropyl-4-(1H-indol-1-yl)-1H-pyrazol-1-yl)cyclobutyl)methyl)amino)-2-(2,6-dioxopiperidin-3-yl)isoindoline-1,3-dione] | 10 to 100 nM | 10 to 100 nM | 100 to 1000 nM | 10 to 100 nM | 
5 |  |  |  |  | O=C1CCC(N2C(=O)c3ccc(NC[C@H]4C[C@H](n5cc(Nc6ccccc6)c(C6CC6)n5)C4)cc3C2=O)C(=O)N1 (stereo partly drawn) [GS-739, 5-(((Trans-3-(3-Cyclopropyl-4-(phenylamino)-1H-pyrazol-1-yl)cyclobutyl)methyl)amino)-2-(2,6-dioxopiperidin-3-yl)isoindoline-1,3-dione] | 10 to 100 nM | < 10 nM | 10 to 100 nM | < 10 nM | 
6 | < 6.00 | < 6.00 | 100 to 1000 nM |  | O=C1CCC(N2C(=O)c3ccc(NC[C@H]4C[C@H](n5nc(C6CC6)c6cc(N7CCNCC7)ccc65)C4)cc3C2=O)C(=O)N1 (stereo partly drawn) [GS-740, 5-(((Trans-3-(3-cyclopropyl-5-(piperazin-1-yl)-1H-indazol-1-yl)cyclobutyl)methyl)amino)-2-(2,6-dioxopiperidin-3-yl)isoindoline-1,3-dione] |  |  |  |  | 
7 | 7.00 to 8.00 | 7.00 to 8.00 | 10 to 100 nM | < 10 nM | O=C1CCC(N2C(=O)c3ccc(NC[C@H]4C[C@H](n5nc(C6CC6)cc5Cc5ccccc5)C4)cc3C2=O)C(=O)N1 (stereo partly drawn) [GS-741, 5-((Trans-3-(5-benzyl-3-cyclopropyl-1H-pyrazol-1-yl)cyclobutyl)methylamino)-2-(2,6-dioxopiperidin-3-yl)isoindoline-1,3-dione] |  |  |  |  | 
8 | < 6.00 | < 6.00 | 100 to 1000 nM | 100 to 1000 nM | O=C1CCC(N2C(=O)c3ccc(NC[C@H]4C[C@H](n5nc(C6CC6)c6ccc(N7CCNCC7)cc65)C4)cc3C2=O)C(=O)N1 (stereo partly drawn) [GS-742, 5-(((Trans-3-(3-cyclopropyl-6-(piperazin-1-yl)-1H-indazol-1-yl)cyclobutyl)methyl)amino)-2-(2,6-dioxopiperidin-3-yl)isoindoline-1,3-dione] |  |  |  |  | 
9 | > 8.00 | > 8.00 | < 10 nM | < 10 nM | CC(C)n1cc2c(-c3cn([C@H]4C[C@H](CNc5ccc6c(c5)C(=O)N(C5CCC(=O)NC5=O)C6=O)C4)nc3C3CC3)ncc(F)c2n1 (stereo partly drawn) [GS-743, 5-(((Trans-3-(3-cyclopropyl-4-(7-fluoro-2-isopropyl-2H-pyrazolo[4,3-c]pyridin-4-yl)-1H-pyrazol-1-yl)cyclobutyl)methyl)amino)-2-(2,6-dioxopiperidin-3-yl)isoindoline-1,3-dione] |  |  |  |  | 
10 | < 6.00 | < 6.00 |  |  | O=C1CCC(N2C(=O)c3ccc(NC[C@H]4C[C@H](n5cc(-c6ncccc6C6CNC6)c(C6CC6)n5)C4)cc3C2=O)C(=O)N1 (stereo partly drawn) [GS-745, 5-(((Trans-3-(4-(3-(azetidin-3-yl)pyridin-2-yl)-3-cyclopropyl-1H-pyrazol-1-yl)cyclobutyl)methyl)amino)-2-(2,6-dioxopiperidin-3-yl)isoindoline-1,3-dione] |  |  |  |  | 
11 | 6.00 to 7.00 | < 6.00 | 10 to 100 nM | 10 to 100 nM | O=C1CCC(N2C(=O)c3ccc(NCC4CC(n5cc(-c6cnc7cc(C8CNC8)ccc7n6)c(C6CC6)n5)C4)cc3C2=O)C(=O)N1 (centres unmarked) [GS-746] |  |  |  |  | 
12 | 7.00 to 8.00 | 7.00 to 8.00 | < 10 nM | < 10 nM | Cc1nc(-c2cn([C@H]3C[C@H](CNc4ccc5c(c4)C(=O)N(C4CCC(=O)NC4=O)C5=O)C3)nc2C2CC2)cc2c1cnn2C (stereo partly drawn) [GS-747, 5-(((Trans-3-(3-cyclopropyl-4-(1,4-dimethyl-1H-pyrazolo[4,3-c]pyridin-6-yl)-1H-pyrazol-1-yl)cyclobutyl)methyl)amino)-2-(2,6-dioxopiperidin-3-yl)isoindoline-1,3-dione] |  |  |  |  | 
13 | 7.00 to 8.00 | 7.00 to 8.00 | < 10 nM | < 10 nM | Cc1cccc(-c2cn(C3CC4(CC(CCNc5ccc6c(c5)C(=O)N(C5CCC(=O)NC5=O)C6=O)C4)C3)nc2C2CC2)n1 (centres unmarked) [GS-749, 5-((2-(6-(3-Cyclopropyl-4-(6-methylpyridin-2-yl)-1H-pyrazol-1-yl)spiro[3.3]heptan-2-yl)ethyl)amino)-2-(2,6-dioxopiperidin-3-yl)isoindoline-1,3-dione] |  |  |  |  | FLT3 inhibition sensitizes AML cells
14 | > 8.00 | > 8.00 | < 10 nM | < 10 nM | O=C1CCC(N2C(=O)c3ccc(NC[C@H]4C[C@H](n5cc(-c6cc7nn(C8CC(O)C8)cc7cn6)c(C6CC6)n5)C4)cc3C2=O)C(=O)N1 (stereo partly drawn) [GS-750, 5-(((Trans-3-(3-cyclopropyl-4-(2-(3-hydroxycyclobutyl)-2H-pyrazolo[4,3-c]pyridin-6-yl)-1H-pyrazol-1-yl)cyclobutyl)methyl)amino)-2-(2,6-dioxopiperidin-3-yl)isoindoline-1,3-dione] |  |  |  |  | FLT3 inhibition sensitizes AML cells
15 | > 8.00 | 7.00 to 8.00 | < 10 nM | < 10 nM | O=C1CCC(N2C(=O)c3ccc(NC[C@H]4C[C@H](n5cc(-n6ccc7cccnc76)c(C6CC6)n5)C4)cc3C2=O)C(=O)N1 (stereo partly drawn) [GS-751, 5-(((Trans-3-(3-cyclopropyl-4-(1H-pyrrolo[2,3-b]pyridin-1-yl)-1H-pyrazol-1-yl)cyclobutyl)methyl)amino)-2-(2,6-dioxopiperidin-3-yl)isoindoline-1,3-dione] |  |  |  |  | 
16 | > 8.00 | > 8.00 | < 10 nM | < 10 nM | O=C1CCC(N2C(=O)c3ccc(NC[C@H]4C[C@H](n5cc(-c6ncc(F)cc6OC6CC6)c(C6CC6)n5)C4)cc3C2=O)C(=O)N1 (stereo partly drawn) [GS-752, 5-(((Trans-3-(4-(3-cyclopropoxy-5-fluoropyridin-2-yl)-3-cyclopropyl-1H-pyrazol-1-yl)cyclobutyl)methyl)amino)-2-(2,6-dioxopiperidin-3-yl)isoindoline-1,3-dione] |  |  |  |  | 
17 | 7.00 to 8.00 | 6.00 to 7.00 | 10 to 100 nM | < 10 nM | Cc1nc(-c2cn([C@H]3C[C@H](CCc4ccc5c(c4)CN(C4CCC(=O)NC4=O)C5=O)C3)nc2C2CC2)ccc1F (stereo partly drawn) [GS-753, 3-(5-(2-(Trans-3-(3-cyclopropyl-4-(5-fluoro-6-methylpyridin-2-yl)-1H-pyrazol-1-yl)cyclobutyl)ethyl)-1-oxoisoindolin-2-yl)piperidine-2,6-dione] |  |  |  |  | 
18 | < 6.00 | < 6.00 | 100 to 1000 nM | 100 to 1000 nM | Cc1nc(-c2cn([C@H]3C[C@H](C#Cc4ccc5c(c4)CN(C4CCC(=O)NC4=O)C5=O)C3)nc2C2CC2)ccc1F (stereo partly drawn) [GS-754, 3-(5-((Trans-3-(3-cyclopropyl-4-(5-fluoro-6-methylpyridin-2-yl)-1H-pyrazol-1-yl)cyclobutyl)ethynyl)-1-oxoisoindolin-2-yl)piperidine-2,6-dione] |  |  |  |  | 
19 | 7.00 to 8.00 | 7.00 to 8.00 | < 10 nM | < 10 nM | CN1CC(c2ccc3nc(-c4cn([C@H]5C[C@H](CNc6ccc7c(c6)C(=O)N(C6CCC(=O)NC6=O)C7=O)C5)nc4C4CC4)cnc3c2)C1 (stereo partly drawn) [GS-755, 5-(((Trans-3-(3-cyclopropyl-4-(6-(1-methylazetidin-3-yl)quinoxalin-2-yl)-1H-pyrazol-1-yl)cyclobutyl)methyl)amino)-2-(2,6-dioxopiperidin-3-yl)isoindoline-1,3-dione] |  |  |  |  | 
20 | < 6.00 | < 6.00 |  |  | Nc1cnc2c(c1)c(C1CC1)nn2[C@H]1C[C@H](CNc2ccc3c(c2)C(=O)N(C2CCC(=O)NC2=O)C3=O)C1 (stereo partly drawn) [GS-756, 5-(((Trans-3-(5-amino-3-cyclopropyl-1H-pyrazolo[3,4-b]pyridin-1-yl)cyclobutyl)methyl)amino)-2-(2,6-dioxopiperidin-3-yl)isoindoline-1,3-dione] |  |  |  |  | 
